Values of other authors in patent US8017143B2, “Coating agent for drug releasing stent, preparation method thereof and drug releasing stent coated therewith” (Taewoong Medical Co., Ltd, priority 2007, dated 2011).

Details: esophageal, prostate, rectal, bladder cancer, hepatic, central nervous system and brain tumors

CC(=O)O[C@H]1C(=O)[C@@]2(C)[C@H]([C@H](OC(=O)c3ccccc3)[C@]3(O)C[C@H](OC(=O)[C@H](O)[C@@H](NC(=O)c4ccccc4)c4ccccc4)C(C)=C1C3(C)C)[C@]1(OC(C)=O)CO[C@@H]1C[C@@H]2O [taxol]
therapeutic effects: excellent therapeutic effects
